# Laboratory results published in patent publication US6737383B1, “Herbicidal oxadiazolidines” (priority 1999, dated 2004).
# Tests used:
# [1] = system: pigweed; test: Test B pre/postemergence pigweed; type: in vivo, Amaranthus retroflexus
# How it was run: (§1)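 Response is a visual 0-to-10 score relative to untreated plants, where 0 means no effect and 10 means complete control, taken twelve to sixteen days after application. Treatments went onto soil at planting and onto foliage of 1- to 4-leaf plants, using a surfactant-containing non-phytotoxic solvent.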
# [2] = system: purple nutsedge; test: Test B pre/postemergence purple nutsedge; type: in vivo, Cyperus rotundus
# How it was run: as §1
# [3] = system: bedstraw; test: Test B pre/postemergence bedstraw; type: in vivo, Galium aparine
# How it was run: as §1
# [4] = system: crabgrass; test: Test B pre/postemergence crabgrass; type: in vivo, Digitaria sanguinalis
# How it was run: as §1
# [5] = system: giant foxtail; test: Test B pre/postemergence giant foxtail; type: in vivo, Setaria faberii
# How it was run: as §1
# [6] = system: blackgrass; test: Test B pre/postemergence blackgrass; type: in vivo, Alopecurus myosuroides
# How it was run: as §1
# [7] = system: wheat; test: Test B pre/postemergence wheat; type: in vivo, Triticum aestivum
# How it was run: as §1
# [8] = system: surinam grass; test: Test B pre/postemergence surinam grass; type: in vivo, Brachiaria decumbens
# How it was run: as §1
# [9] = system: morningglory; test: Test B pre/postemergence morningglory; type: in vivo, Ipomoea hederacea
# How it was run: as §1
# [10] = system: bamyardgrass; test: Test B flood test barnyardgrass; type: in vivo, Echinochloa crus-galli
# How it was run: (§2)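 Read-out is a visual response score from 0 (no effect) to 10 (complete control), assigned by comparison with untreated controls. Treatment was applied at the 2-leaf stage, and plants stayed in the greenhouse for twelve to sixteen days before scoring.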
# [11] = system: cocklebur; test: Test B pre/postemergence cocklebur; type: in vivo, Xanthium strumarium
# How it was run: as §1
# [12] = system: velvetleaf; test: Test B pre/postemergence velvetleaf; type: in vivo, Abutilon theophrasti
# How it was run: as §1
# [13] = system: rice; test: Test B flood test rice; type: in vivo, Oryza sativa
# How it was run: as §2
# [14] = system: soybean; test: Test B pre/postemergence soybean; type: in vivo, Glycine max
# How it was run: as §1
# [15] = system: wild oat; test: Test B pre/postemergence wild oat; type: in vivo, Avena fatua
# How it was run: as §1
# [16] = system: smallflower flatsedge; test: Test B flood test smallflower flatsedge; type: in vivo, Cyperus difformis
# How it was run: as §2
# [17] = Preemergence, Rate 62 g/ha, scale of 0 to 10 where 0 is no effect and 10 is complete control
# [18] = Preemergence, Rate 125 g/ha, 0 is no effect, 10 is complete control
# [19] = Preemergence, Rate 250 g/ha, scale 0 to 10, 0 is no effect, 10 is complete control
# [20] = Preemergence, Rate 500 g/ha, scale 0 to 10 (0 no effect, 10 complete control)
# [21] = Rate 62 g/ha, Postemergence, scale of 0 to 10 where 0 is no effect and 10 is complete control
# [22] = Rate 125 g/ha, Postemergence, scale 0 to 10
# [23] = Rate 500 g/ha, Postemergence, scale 0 to 10
# [24] = Rate 62 g/ha, headed Pre-emergence (flood test species), scale 0 to 10 (0 no effect, 10 complete control)
# [25] = Rate 125 g/ha, Pre-emergence, flood test species, scale 0 to 10 where 0 is no effect and 10 is complete control
# [26] = Rate 250 g/ha, Pre-emergence, flood-test species, scale 0 to 10, 0 is no effect, 10 is complete control
# [27] = Rate 500 g/ha, headed Pre-emergence (flood test species), scale 0 to 10 (0 no effect, 10 complete control)
compound,measurement,setting,value
CCN(Cc1ccncc1)C(=O)n1oc(=O)n(C(C)C)c1=O [Compound 189],Redroot pigweed plant response rating,[1]; [17],0
same,Redroot pigweed plant response rating (0 to 10 scale),[1]; [18],0
same,Redroot pigweed plant response rating,[1]; [19],0
same,Redroot pigweed plant response rating,[1]; [20],0
same,Redroot pigweed plant response rating,[1]; [21],0
same,Redroot pigweed plant response rating,[1]; [22],0
same,"Plant response rating (0 to 10; 0 is no effect, 10 is complete control), Redroot pigweed","[1]; Rate 250 g/ha, Postemergence",0
same,Redroot pigweed plant response rating,[1]; [23],0
same,Nutsedge plant response rating,[2]; [17],0
same,Nutsedge plant response rating (0 to 10 scale),[2]; [18],0
same,Nutsedge plant response rating,[2]; [19],0
same,Nutsedge plant response rating,[2]; [20],0
same,Nutsedge plant response rating,[2]; [21],0
same,Nutsedge plant response rating,[2]; [22],0
same,"Plant response rating (0 to 10; 0 is no effect, 10 is complete control), Nutsedge","[2]; Rate 250 g/ha, Postemergence",0
same,Nutsedge plant response rating,[2]; [23],0
same,Bedstraw plant response rating,[3]; [17],0
same,Bedstraw plant response rating (0 to 10 scale),[3]; [18],0
same,Bedstraw plant response rating,[3]; [19],0
same,Bedstraw plant response rating,[3]; [20],0
same,Bedstraw plant response rating,[3]; [21],0
same,Bedstraw plant response rating,[3]; [22],0
same,"Plant response rating (0 to 10; 0 is no effect, 10 is complete control), Bedstraw","[3]; Rate 250 g/ha, Postemergence",0
same,Bedstraw plant response rating,[3]; [23],0
same,Crabgrass plant response rating,[4]; [17],0
same,Crabgrass plant response rating (0 to 10 scale),[4]; [18],0
same,Crabgrass plant response rating,[4]; [19],0
same,Crabgrass plant response rating,[4]; [20],3
same,Crabgrass plant response rating,[4]; [21],0
same,Crabgrass plant response rating,[4]; [22],0
same,"Plant response rating (0 to 10; 0 is no effect, 10 is complete control), Crabgrass","[4]; Rate 250 g/ha, Postemergence",0
same,Crabgrass plant response rating,[4]; [23],0
same,Giant foxtail plant response rating,[5]; [17],0
same,Giant foxtail plant response rating (0 to 10 scale),[5]; [18],0
same,Giant foxtail plant response rating,[5]; [19],3
same,Giant foxtail plant response rating,[5]; [20],6
same,Giant foxtail plant response rating,[5]; [21],0
same,Giant foxtail plant response rating,[5]; [22],0
same,"Plant response rating (0 to 10; 0 is no effect, 10 is complete control), Giant foxtail","[5]; Rate 250 g/ha, Postemergence",0
same,Giant foxtail plant response rating,[5]; [23],0
same,Blackgrass plant response rating,[6]; [17],1
same,Blackgrass plant response rating (0 to 10 scale),[6]; [18],4
same,Blackgrass plant response rating,[6]; [19],4
same,Blackgrass plant response rating,[6]; [20],7
same,Blackgrass plant response rating,[6]; [21],0
same,Blackgrass plant response rating,[6]; [22],0
same,"Plant response rating (0 to 10; 0 is no effect, 10 is complete control), Blackgrass","[6]; Rate 250 g/ha, Postemergence",0
same,Blackgrass plant response rating,[6]; [23],0
same,Wheat plant response rating,[7]; [17],0
same,Wheat plant response rating,[7]; [19],0
same,Wheat plant response rating,[7]; [20],2
same,Wheat plant response rating,[7]; [21],0
same,Wheat plant response rating,[7]; [22],0
same,"Plant response rating (0 to 10; 0 is no effect, 10 is complete control), Wheat","[7]; Rate 250 g/ha, Postemergence",0
same,B. signalgrass plant response rating,[8]; [17],3
same,B. signalgrass plant response rating,[8]; [19],3
same,B. signalgrass plant response rating,[8]; [20],6
same,B. signalgrass plant response rating,[8]; [21],0
same,B. signalgrass plant response rating,"[8]; Rate 125 g/ha, Postemergence, scale 0 (no effect) to 10 (complete control)",0
same,"Plant response rating, B. signalgrass","[8]; Rate 250 g/ha, Postemergence, scale 0 to 10, 0 is no effect, 10 is complete control",0
same,B. signalgrass plant response rating,"[8]; Rate 500 g/ha, Postemergence, scale 0 to 10, 0 no effect, 10 complete control",0
same,Morningglory plant response rating,[9]; [17],0
same,Morningglory plant response rating (0 to 10 scale),[9]; [18],0
same,Morningglory plant response rating,[9]; [19],0
same,Morningglory plant response rating,[9]; [20],0
same,Morningglory plant response rating,[9]; [21],0
same,Morningglory plant response rating,[9]; [22],0
same,"Plant response rating (0 to 10; 0 is no effect, 10 is complete control), Morningglory","[9]; Rate 250 g/ha, Postemergence",0
same,Morningglory plant response rating,[9]; [23],0
same,Barnyardgrass plant response rating,[10]; [24],0
same,Barnyardgrass plant response rating,[10]; [25],0
same,Barnyardgrass plant response rating,[10]; [26],0
same,"Plant response rating, Barnyardgrass",[10]; [27],0
same,Cocklebur plant response rating (0 to 10 scale),[11]; [18],0
same,Cocklebur plant response rating,[11]; [19],0
same,Cocklebur plant response rating,[11]; [20],0
same,Cocklebur plant response rating,[11]; [21],0
same,Cocklebur plant response rating,[11]; [22],0
same,"Plant response rating (0 to 10; 0 is no effect, 10 is complete control), Cocklebur","[11]; Rate 250 g/ha, Postemergence",0
same,Cocklebur plant response rating,[11]; [23],0
same,Velvetleaf plant response rating,[12]; [17],0
same,Velvetleaf plant response rating,[12]; [19],0
same,Velvetleaf plant response rating,[12]; [20],0
same,Velvetleaf plant response rating,[12]; [21],0
same,Velvetleaf plant response rating,[12]; [22],0
same,"Plant response rating (0 to 10; 0 is no effect, 10 is complete control), Velvetleaf","[12]; Rate 250 g/ha, Postemergence",0
same,Rice plant response rating,[13]; [24],0
same,Rice plant response rating,[13]; [25],0
same,Rice plant response rating,[13]; [26],0
same,"Plant response rating, Rice",[13]; [27],0
same,Soybean plant response rating,[14]; [17],0
same,Soybean plant response rating (0 to 10 scale),[14]; [18],0
same,Soybean plant response rating,[14]; [19],0
same,Soybean plant response rating,[14]; [20],0
same,Soybean plant response rating,[14]; [21],0
same,Soybean plant response rating,[14]; [22],0
same,"Plant response rating (0 to 10; 0 is no effect, 10 is complete control), Soybean","[14]; Rate 250 g/ha, Postemergence",0
same,Soybean plant response rating,[14]; [23],0
same,Wild oats plant response rating,[15]; [17],0
same,Wild oats plant response rating,[15]; [19],3
same,Wild oats plant response rating,[15]; [20],3
same,Wild oats plant response rating,[15]; [21],0
same,Wild oats plant response rating,[15]; [22],0
same,"Plant response rating (0 to 10; 0 is no effect, 10 is complete control), Wild oats","[15]; Rate 250 g/ha, Postemergence",0
same,S. Flatsedge plant response rating,[16]; [24],0
same,S. Flatsedge plant response rating,[16]; [25],0
same,S. Flatsedge plant response rating,[16]; [26],0
same,S. Flatsedge plant response rating,"[16]; Rate 500 g/ha, Pre-emergence, flood test species, scale 0 to 10 (0 no effect, 10 complete control)",0
